In the RepoRT retention time repository (doi:10.1021/acs.analchem.2c02893):

Assay: RP, Thermo Scientific Acclaim RSLC 120 C18, 100 × 2.1 mm, 2.2 µm, 30 °C, 0.2 mL/min, estimated dead time 1.1 min; A: 90% water + 10% methanol + 0.01% formic acid + 5 mM ammonium formate, pH 3.61; B: methanol + 0.01% formic acid + 5 mM ammonium formate, pH 3.61; gradient (min/%B) 0/1 1/1 2/39 13/99.9 15/99.9 15.1/1 20.1/1
Conditions: stereoisomer not certain

SMILES	LC retention time [min]
CNC(=O)CSP(=S)(OC)OC [Dimethoate]	5.23
CC(C)(COCc1cccc(Oc2ccccc2)c1)c1ccc(OC(F)(F)Br)cc1 [Halfenprox]	14.3
CC1(C)C(C(=O)OC(C#N)c2cccc(Oc3ccccc3)c2)C1(C)C (stereo not drawn) [Fenpropathrin]	12.9
C=CC1(C)OC(=O)N(c2cc(Cl)cc(Cl)c2)C1=O (stereo not drawn) [Vinclozolin]	10.6
NNC(=O)c1ccncc1 [Isoniazide]	2.18
CC(C)C1(NC(=O)C2CC3c4cccc5[nH]cc(c45)CC3N(C)C2)OC2(O)C3CCCN3C(=O)C(Cc3ccccc3)N2C1=O (stereo not drawn) [Ergocristine-Dihydro]	8.17
COc1ccc2c3c1OC1C(O)C=CC4C(C2)N(C)CCC341 (stereo not drawn) [Codeine]	3.4
Nc1ccc(Cl)cc1C(=O)c1ccccc1 [Benzophenone- 2-Amino-5-chloro]	10.5
CC(N)C(O)c1ccccc1 (stereo not drawn) [Cathine / Ephedrine-Nor (Cathin. Phenylpropanolamine)]	3.68
CCC(NC)C(=O)c1ccc(C)cc1 (stereo not drawn) [Buphedrone-4-Methyl]	5.04
C=CCNc1nc(NCC=C)nc(N2CCN(C(c3ccc(F)cc3)c3ccc(F)cc3)CC2)n1 [Almitrine]	13.4
O=C(NC(=O)c1c(F)cccc1F)Nc1ccc(Cl)cc1 [Diflubenzuron]	10.6
COCC(=O)Nc1c(I)c(C(=O)NCC(O)CO)c(I)c(C(=O)N(C)CC(O)CO)c1I (stereo not drawn) [Iopromid]	3.38
CCN(CC)CCOC(=O)C1(C2CCCCC2)CCCCC1 [Dicycloverine]	9.99
Cc1ncc(CO)c(CO)c1O [Pyridoxine]	2.18
Cc1occc1C(=O)Nc1ccccc1 [Fenfuram]	7.59
CCN1CCN(c2cc3c(cc2F)c(=O)c(C(=O)O)cn3C2CC2)CC1 [Enrofloxacin]	4.64
O=C(OC1CC2CCC(C1)[N+]21CCCC1)C(O)(c1ccccc1)c1ccccc1 (stereo not drawn) [Trospium]	5.72
O=C(c1ccccc1I)c1cn(CCCCCF)c2ccccc12 [AM-694]	10.5
CCCCCCCCCCCCCCCC[N+](C)(C)Cc1ccccc1 [Benzyldimethylhexadecylammonium]	13.1
NC(Cc1cc(I)c(O)c(I)c1)C(=O)O (stereo not drawn) [Tyrosine-3.5-Diiodo]	4.77
CCN(CC)C(=O)C(C)Oc1cccc2ccccc12 (stereo not drawn) [Napropamide]	10.2
COCC(=O)N(c1c(C)cccc1C)C(C)C(=O)OC (stereo not drawn) [Metalaxyl]	8.22
CCCNC1CCc2nc(N)sc2C1 (stereo not drawn) [Pramipexole]	2.64
CCCCCn1cc(C(=O)C23CC4CC(CC(C4)C2)C3)c2ccccc21 [JWH-018-Adamantoyl. AB-001]	13.7

SMILES	LC retention time [min]
CC(C(O)c1ccccc1)N(C)C (stereo not drawn) [Methylephedrine]	3.73
O=C(Nc1ccccc1)c1ccccc1I [Benodanil]	8.02
CC(C)N(CCC(C(N)=O)(c1ccccc1)c1ccccn1)C(C)C (stereo not drawn) [Disopyramide]	4.74
COC(=O)C(NC(=O)c1cn(CCCCCF)c2ccccc12)C(C)C (stereo not drawn) [MMB-2201]	10
CCCCC(=O)OC1(C(=O)CO)C(C)CC2C3CCC4=CC(=O)C=CC4(C)C3(F)C(O)CC21C (stereo not drawn) [Betamethasone-17-valerate]	11
COC(C)(C)CCCC(C)CC=CC(C)=CC(=O)OC(C)C (stereo not drawn) [Methoprene]	13.6
CCCCCn1cc(C(=O)Cc2ccc(OC)cc2)c2ccccc21 [JWH-201]	11.6
CCCCCn1cc(C(=O)c2cccc3ccccc23)cc1-c1ccccc1F [JWH-307]	12.8
S=c1nc[nH]c2nc[nH]c12 [6-Mercaptopurine]	2.62
COP(=S)(OC)Oc1ccc(S(C)=O)c(C)c1 (stereo not drawn) [Fenthion-sulfoxide]	7.28
CCC(c1cccc(O)c1)C(C)CNC (stereo not drawn) [Tapentadol-N-Desmethyl]	5.14
CCOP(=S)(OCC)N1C(=O)c2ccccc2C1=O [Ditalimfos]	10.2
Cc1ccc(N)c(C)c1 [Dimethylaniline (2.4-) (Metabolite Amitraz)]	5.04
CNC(=O)Oc1cc(C)c(S(C)(=O)=O)c(C)c1 [Methiocarb-sulfone]	5.28
O=C(CCCN1CCC(n2c(=O)[nH]c3ccccc32)CC1)c1ccc(F)cc1 [Benperidol]	5.96
CCS(=O)(=O)c1cccnc1S(=O)(=O)NC(=O)Nc1nc(OC)cc(OC)n1 [Rimsulfuron]	7.09
COc1cc2nc(N3CCN(C(=O)C4CCCO4)CC3)nc(N)c2cc1OC (stereo not drawn) [Terazosin]	4.92
CC(=O)N(CC(O)CN(C(C)=O)c1c(I)c(C(=O)NCC(O)CO)c(I)c(C(=O)NCC(O)CO)c1I)c1c(I)c(C(=O)NCC(O)CO)c(I)c(C(=O)NCC(O)CO)c1I (stereo not drawn) [Iodixanol]	3.56
CC(C)Nc1nc(N)[nH]c(=O)n1 [Atrazine-desethyl-2-hydroxy (=Prometon-Hydroxy-Desisopropyl)]	3.16
CCOP(=S)(NC(C)C)Oc1ccccc1C(=O)OC(C)C (stereo not drawn) [Isofenphos]	11.2
O=C(NC(=O)c1c(F)cccc1F)Nc1cc(Cl)c(OC(F)(F)C(F)C(F)(F)F)cc1Cl (stereo not drawn) [Lufenuron]	12.5
CC(C)C(NC(=O)c1nn(Cc2ccc(F)cc2)c2ccccc12)C(N)=O (stereo not drawn) [AB-FUBINACA]	9.59
COC(=O)C1=CCCN(C)C1 [Arecoline]	1.74
CN(C)C(=O)Nc1cccc(C(F)(F)F)c1 [Fluometuron]	7.85

Next, values leading:

LC retention time [min]	SMILES
8.2	CC(C)c1nc(N(C)S(C)(=O)=O)nc(-c2ccc(F)cc2)c1C=CC(O)CC(O)CC(=O)O (stereo not drawn) [Rosuvastatin]
9.09	CCc1ccc(CCOc2ccc(CC3SC(=O)NC3=O)cc2)nc1 (stereo not drawn) [Pioglitazone]
4.09	NC(C(=O)NC1C(=O)N2C(C(=O)O)=C(Cl)CSC12)c1ccccc1 (stereo not drawn) [Cefaclor]
8.54	CCN(CC)CCCOC(=O)C1(c2ccccc2)CC2CCC1C2 (stereo not drawn) [Bornaprine]
7.54	CNCCOC(c1ccccc1)c1ccccc1C (stereo not drawn) [Orphenadrine-Nor (Tofenacin. Elamol)]
11.3	Cc1cccc(CN2CCN(C(c3ccccc3)c3ccc(Cl)cc3)CC2)c1 (stereo not drawn) [Meclozine]
8.6	CNCCC(Oc1ccc(C(F)(F)F)cc1)c1ccccc1 (stereo not drawn) [Fluoxetine]
5.66	O=C(O)c1cc(N=Nc2ccc(O)c(C(=O)O)c2)ccc1O [Olsalazine]
10.2	O=C(O)Cc1ccccc1Nc1c(Cl)cccc1Cl [Diclofenac]
8.11	CNCCC(Oc1cccc2ccccc12)c1cccs1 (stereo not drawn) [Duloxetine]
8.14	COc1ccc2c(c1)N(CC(C)CN(C)C)c1ccccc1S2 (stereo not drawn) [Levomepromazine]
3.62	C=CCN1CCCC1CNC(=O)c1cc2n[nH]nc2cc1OC (stereo not drawn) [Alizapride]
3.98	CCCN(CCC)CCc1cccc2c1CC(=O)N2 [Ropinirole]
7.94	CCOC(=O)C(CCc1ccccc1)NC1CCCN2CCCC(C(=O)O)N2C1=O (stereo not drawn) [Cilazapril]
9.55	OCCN1CCN(CCCN2c3ccccc3Sc3ccc(Cl)cc32)CC1 [Perphenazine]
7.76	CCN(CC)CCN1c2ccccc2Sc2ccccc21 [Diethazine]
8.43	COc1ccc(Oc2ccc(NC(=O)N(C)C)cc2)cc1 [Difenoxuron]

LC retention time [min]	SMILES
9.55	CCOC(=O)C(CCc1ccccc1)NC(C)C(=O)N1C(C(=O)O)CC2CCCCC21 (stereo not drawn) [Trandolapril]
6.31	CC(CN(C)C)C(C)(O)Cc1ccc(Cl)cc1 (stereo not drawn) [Clobutinol]
4.93	CC(=O)c1cc2cccc(OCC(O)CNC(C)C)c2o1 (stereo not drawn) [Befunolol]
5.66	Cc1ccccc1N1CCN(CCc2nnc3n2CCCC3)CC1 [Dapiprazole]
4.29	CC(C)(C)NCC(O)COc1cccc2c1CC(O)C(O)C2 (stereo not drawn) [Nadolol]
9.62	CC(C)C(O)(c1ccc(OC(F)(F)F)cc1)c1cncnc1 (stereo not drawn) [Flurprimidol]
5.24	CCCN1CC(NS(=O)(=O)N(CC)CC)CC2Cc3c(O)cccc3CC21 (stereo not drawn) [Quinagolide]
10.5	CN(C)CCOc1ccc(C(=C(CCCl)c2ccccc2)c2ccccc2)cc1 [Toremifene]
7.03	O=C(NCC1CN(c2ccc(N3CCOCC3=O)cc2)C(=O)O1)c1ccc(Cl)s1 (stereo not drawn) [Rivaroxaban]
7.09	CN(C)CCN(Cc1ccc(Cl)cc1)c1ccccn1 [Chloropyramine]
4.63	O=S(=O)(O)c1ccc2nc(-c3ccccc3)[nH]c2c1 [Phenylbenzimidazole sulfonic acid]
9.36	CCCOC(C(=O)OC1CCN(C)CC1)(c1ccccc1)c1ccccc1 [Propiverine]
3.95	Cc1ccnc(NS(=O)(=O)c2ccc(N)cc2)n1 [Sulfamerazine]
8.5	c1ccc2sc(N3CCOCC3)nc2c1 [2-(4-Morpholinyl)benzothiazole]
6.16	CN(C)CCOC(=O)C(c1ccccc1)C1(O)CCCC1 (stereo not drawn) [Cyclopentolate]
6.48	O=c1n(CCCN2CCN(c3cccc(Cl)c3)CC2)nc2ccccn12 [Trazodone]
10.6	CCCc1nn(C)c2c(=S)nc(-c3cc(S(=O)(=O)N4CCN(CC)CC4)ccc3OCC)[nH]c12 [Sildenafil Thiohomo]
